Test results: patent US6514747B2 (UT-Battelle, LLC, priority 1993, dated 2003)

Legend:
L6 skeletal myocytes = assay: [Ca2+]i in L6 skeletal myocytes (fura 2); type: cell-based
3T3-L1 adipocytes = assay: lipogenesis in 3T3-L1 adipocytes (FAS and SCD mRNA, FAS activity, triglyceride content); type: cell-based; details: nitrendipine alone
[1] = tested on: aP212 and aP273 transgenic mice; assay: daily insulin injections in aP2-agouti transgenic mice; type: in vivo, mouse
Method: All mice were maintained at Oak Ridge National Laboratory. The FVB/N mice were obtained from random-bred stock. All mice were fed a diet containing 11% fat by weight (Mouse Diet 5015; Purina), weaned at 4 wk of age, and subsequently weighed monthly. Food and water were obtained from ad libitum. All data are from mice that are hemizygous for the transgene.
Plasma and serum were obtained by retro-orbital sinus puncture from nonfasted mice between 9 am and 11 am. Plasma insulin levels were measured by radioimmunoassay (ICN) with porcine insulin as a standard. Blood glucose concentrations were determined by blood sampling from the tail vein followed by quantification via One-Touch™ glucose determination system (Johnson & Johnson).
Six- to ten-wk-old male mice were subcutaneously injected between 11 am and noon with Humulin U ultralente (Eli Lilly, Indianapolis, Ind.) at a daily dose of 0.5, 1, or 2 units/day per mouse. Insulin (100 units/ml) was diluted before injection with phosphate-buffered saline so that all mice received a 200-μl injection. A 1-ml syringe was filled with […] of the diluted insulin solution. To keep the insulin suspension as uniform as possible, it was mixed between each injection via plunger action.

untransfected 293 cells = assay: adenylyl cyclase assay in untransfected 293 cells; type: cell-based, human; details: untransfected 293 cells
Method: 293 cells (5×10^5) and 293 cells expressing human TSH-R were preloaded with 5 μCi ^3H-adenine for 1.5 h at 37° C. in a 5% CO2 incubator.
Medium was aspirated and 2.5% perchloric acid containing 0.1 mM cAMP was used to stop the incubation. Adenylyl cyclase activity was calculated by determining the percent conversion of ^3H-adenine to ^3H-cAMP as described (Salomon, 1991; Johnson and Salomon, 1991). Correlation of cAMP accumulation measured in this assay with actual adenylyl cyclase activity is made under the assumption that isobutymethylxanthine effectively blocks cAMP degradation. Data represent means and standard deviations from triplicate data points.

[2] = biological target: T1, human melanocortin 1 receptor (hMC1R) (Homo sapiens, UniProt Q01726); assay: [Ca2+]i in HEK-293 cells transfected with hMC1R; type: cell-based; details: 20 nM agouti, n = 8
T1 construct: The coding region of the human melanocortin 1, 3, and 5 receptor (hMC1R, hMC3R, and hMC5R) genes was amplified; expressed in transfected cells; host or cells: HEK-293 cells, cotransfected with pMT4 construct and pRSV-Neo, geneticin-selected clones
Method: The coding region of the human melanocortin 1, 3, and 5 receptor (hMC1R, hMC3R, and hMC5R) genes was amplified by polymerase chain reaction and subcloned into the vector pMT4, and the sequence was verified. HEK-293 cells, which appear to lack endogenous melanocortin receptors (Lu et al., 1994), were cotransfected with pMT4 and pRSV-Neo by either calcium phosphate coprecipitation method or the use of Transfectam reagent (Promega). Clones were selected using 600 μg geneticin/ml. culture medium.
[Ca^2+]i was measured in L6, A7r5, and HEK-293 cells (Zemel et al., 1995) as previously described and in 3T3-L1 cells as described by Klip and Ramlal (1987). Monolayers of nonfused L6 cells and confluent A7r5 cells after 14-16 h of starvation in a serum-free culture medium were rinsed with Hanks' balanced salt solution (HBSS), detached by incubation in 2 ml trypsin (0.05%) for 2-3 min at 37° C., and released by pipetting without trypsinization. Cells were harvested by centrifugation at 50 g and resuspended in 1 ml HBSS at a density of ˜10^6 cells/ml. For 3T3-L1 cells, monolayers of differentiated adipocytes were rinsed with serum-free DMEM and exposed to 0.05% trypsin for 3 min. The solution was decanted, and the cells were incubated for 3 min in culture medium. Cells were detached by pipetting and collected by centrifugation at 50 g. Cells were then incubated in culture medium to recover for 1 h followed by incubation in serum-free DMEM for 4 h at 37° C. in an atmosphere of 5% CO2, collected by centrifugation, and resuspended in HBSS at a density of ˜10^6 cells/ml. Cell suspensions were chilled on ice for 5 min and loaded with […] (final concn) fura 2 acetoxymethyl ester (AM; Sigma) in the dark for 20 min at 37° C. For 3T3-L1 adipocytes, the chilling step was skipped. […] [Ca^2+]i levels were then measured fluorometrically in suspensions using dual excitation (340 and 380 nm)-single emission (510 nm) fluorometry as previously described (Zemel et al., 1995). [Ca^2+]i was then calculated by the computer in the fluorometer with the equation of Grynkiewicz et al. (1985). […]

[3] = tested on: isolated human adipocytes; assay: [Ca2+]i in isolated human adipocytes; type: cell-based
[4] = biological target: T2, human melanocortin 3 receptor (hMC3R) (Homo sapiens, UniProt P41968); assay: [Ca2+]i in HEK-293 cells transfected with hMC3R; type: cell-based; details: 20 nM agouti, n = 8
T2 construct: The coding region of the human melanocortin 1, 3, and 5 receptor (hMC1R, hMC3R, and hMC5R) genes was amplified; expressed in transfected cells; host or cells: HEK-293 cells, cotransfected with pMT4 construct and pRSV-Neo, geneticin-selected clones
T2 sequence (P41968 whole entry): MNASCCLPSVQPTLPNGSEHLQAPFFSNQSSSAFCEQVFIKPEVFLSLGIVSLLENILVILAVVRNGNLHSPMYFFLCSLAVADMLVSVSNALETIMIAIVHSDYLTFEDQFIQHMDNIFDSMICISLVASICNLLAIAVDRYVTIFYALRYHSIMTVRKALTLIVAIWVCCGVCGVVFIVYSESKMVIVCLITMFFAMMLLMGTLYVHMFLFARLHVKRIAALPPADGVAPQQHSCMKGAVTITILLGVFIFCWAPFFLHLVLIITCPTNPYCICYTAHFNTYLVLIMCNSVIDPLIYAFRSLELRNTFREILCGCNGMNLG
Method: [Ca^2+]i was measured in L6, A7r5, and HEK-293 cells (Zemel et al., 1995) as previously described and in 3T3-L1 cells as described by Klip and Ramlal (1987). Monolayers of nonfused L6 cells and confluent A7r5 cells after 14-16 h of starvation in a serum-free culture medium were rinsed with Hanks' balanced salt solution (HBSS), detached by incubation in 2 ml trypsin (0.05%) for 2-3 min at 37° C., and released by pipetting without trypsinization. Cells were harvested by centrifugation at 50 g and resuspended in 1 ml HBSS at a density of ˜10^6 cells/ml. For 3T3-L1 cells, monolayers of differentiated adipocytes were rinsed with serum-free DMEM and exposed to 0.05% trypsin for 3 min. The solution was decanted, and the cells were incubated for 3 min in culture medium. Cells were detached by pipetting and collected by centrifugation at 50 g. Cells were then incubated in culture medium to recover for 1 h followed by incubation in serum-free DMEM for 4 h at 37° C. in an atmosphere of 5% CO2, collected by centrifugation, and resuspended in HBSS at a density of ˜10^6 cells/ml. […] [Ca^2+]i levels were then measured fluorometrically in suspensions using dual excitation (340 and 380 nm)-single emission (510 nm) fluorometry as previously described (Zemel et al., 1995). [Ca^2+]i was then calculated by the computer in the fluorometer with the equation of Grynkiewicz et al. (1985). […]

T1 sequence (Q01726 whole entry): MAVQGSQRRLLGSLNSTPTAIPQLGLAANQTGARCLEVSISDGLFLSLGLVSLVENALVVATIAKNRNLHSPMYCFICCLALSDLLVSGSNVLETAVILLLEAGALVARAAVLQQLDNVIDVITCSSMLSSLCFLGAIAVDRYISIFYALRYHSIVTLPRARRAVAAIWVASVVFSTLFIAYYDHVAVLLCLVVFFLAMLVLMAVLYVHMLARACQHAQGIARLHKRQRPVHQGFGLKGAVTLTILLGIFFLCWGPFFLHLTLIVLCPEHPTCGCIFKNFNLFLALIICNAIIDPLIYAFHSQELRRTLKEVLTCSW

Molecule: CCOC(=O)C1=C(C)NC(C)=C(C(=O)OC)C1c1cccc([N+](=O)[O-])c1 (stereo not drawn) [nitrendipine, reference compound]
- reduction of [Ca2+]i response to 50 nM agouti (L6 skeletal myocytes; 30 μM nitrendipine): ~50%
- [Ca2+]i response to 50 nM agouti (L6 skeletal myocytes; with 30 μM nitrendipine): 22 ± 6 nM
- effect on FAS activity or triglyceride content (3T3-L1 adipocytes): no effect

Molecule: insulin: Humulin U ultralente (Eli Lilly), injected subcutaneously
- time for blood glucose levels to return to normal after insulin injection ([1]; 1 unit per mouse s.c., aP212 mice and littermates): ≤ 24 h
- average rate of weight gain, insulin-injected transgenic mice vs control mice ([1]; 2 units of insulin per day per mouse s.c., 7 days): 1.7 fold

Molecule: α-melanocyte-stimulating hormone [α-MSH, reference compound]
- effect on the cAMP pathway (untransfected 293 cells): no effect

B1: human agouti: recombinant human agouti protein (132 amino acids, SEQ ID NO:4) produced in baculovirus-infected T. ni cells (protein)
chain: MDVTRLLLATLLVFLCFFTANSHLPPEEKLRDDRSLRSNSSVNLLDVPSVSIVALNKKSKQIGRKAAEKKRSSKKEASMKKVVRPRTPLSAPCVATRNSCKPPAPACCDPCASCQCRFFRSACSCRVLSLNC
modifications: Homo sapien
- [Ca2+]i Increase over Baseline [2]: 57 ± 9
- [Ca2+]i [3]: stimulate an increase
- [Ca2+]i Increase over Baseline [4]: 77 ± 14
